{"source": "patent US11807650B2", "about": "“NMDA receptor modulators and uses thereof” (Novartis AG, priority 2016, dated 2023)", "molecular_target": "T1, human GRIN1 (transcript variant NR1-3) and GRIN2D expressed in Xenopus oocytes (Homo sapiens, UniProt O15399)", "T1 construct": "GenScript (GRIN2D synthesis) SC115601; host or cells: Xenopus oocytes injected with cRNA (1 GluN1 : 2 GluN2)", "T1 sequence (O15399 28-1336, other chains not shown)": "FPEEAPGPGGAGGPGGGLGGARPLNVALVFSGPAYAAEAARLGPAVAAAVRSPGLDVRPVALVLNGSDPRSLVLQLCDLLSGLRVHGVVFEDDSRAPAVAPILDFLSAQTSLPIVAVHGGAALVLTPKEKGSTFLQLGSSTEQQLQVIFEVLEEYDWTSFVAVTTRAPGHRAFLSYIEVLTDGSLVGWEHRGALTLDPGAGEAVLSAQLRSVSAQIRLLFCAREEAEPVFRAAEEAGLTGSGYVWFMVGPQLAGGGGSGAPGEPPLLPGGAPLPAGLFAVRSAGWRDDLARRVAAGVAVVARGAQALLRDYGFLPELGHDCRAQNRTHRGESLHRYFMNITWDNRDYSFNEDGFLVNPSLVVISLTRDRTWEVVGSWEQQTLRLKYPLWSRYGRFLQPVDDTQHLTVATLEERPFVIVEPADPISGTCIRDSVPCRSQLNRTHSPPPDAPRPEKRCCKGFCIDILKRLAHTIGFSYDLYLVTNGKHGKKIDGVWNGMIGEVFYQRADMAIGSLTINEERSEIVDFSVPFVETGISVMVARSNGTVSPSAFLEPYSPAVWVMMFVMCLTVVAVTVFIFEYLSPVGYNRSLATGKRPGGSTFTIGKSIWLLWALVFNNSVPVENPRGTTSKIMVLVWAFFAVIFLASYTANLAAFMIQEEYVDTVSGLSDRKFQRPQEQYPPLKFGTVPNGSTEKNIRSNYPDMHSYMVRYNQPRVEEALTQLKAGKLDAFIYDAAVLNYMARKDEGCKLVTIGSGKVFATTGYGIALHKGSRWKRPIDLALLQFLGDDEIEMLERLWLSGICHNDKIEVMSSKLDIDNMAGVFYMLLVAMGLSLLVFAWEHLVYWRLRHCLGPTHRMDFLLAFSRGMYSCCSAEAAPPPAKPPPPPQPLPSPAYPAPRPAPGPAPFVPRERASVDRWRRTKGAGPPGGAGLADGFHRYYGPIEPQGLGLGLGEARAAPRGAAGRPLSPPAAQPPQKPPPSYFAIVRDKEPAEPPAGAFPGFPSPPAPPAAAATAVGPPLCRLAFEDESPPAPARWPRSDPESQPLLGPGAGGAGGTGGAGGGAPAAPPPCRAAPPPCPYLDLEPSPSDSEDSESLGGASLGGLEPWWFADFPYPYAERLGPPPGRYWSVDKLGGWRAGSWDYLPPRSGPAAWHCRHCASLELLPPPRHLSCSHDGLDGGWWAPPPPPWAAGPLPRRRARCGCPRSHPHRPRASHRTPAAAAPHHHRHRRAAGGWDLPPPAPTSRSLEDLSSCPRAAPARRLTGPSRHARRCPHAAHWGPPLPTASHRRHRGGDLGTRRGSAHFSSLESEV", "assay": "NR2D oocyte potentiation assay (two-electrode voltage clamp)", "assay_type": "cell-based", "conditions": "10 uM test compound; glutamate and glycine 10 μM each; holding potential −40 mV", "experimental": "NR2D Oocyte Potentiation Assay. Xenopus oocytes (Xenopus 1, Dexter, Mich.) were initially separated from the lobes of an ovary using surgical forceps; they were then defolliculated by constant agitation at room temperature in OR-2 buffer (82.5 mM NaCl; 2.5 mM KCl; 1 mM MgCl2; 5 mM HEPES; pH 7.4) containing 2 mg/ml collagenase Type 1 (Fisher Scientific, USA) for 1.5-2 hours. The cells were then gently aspirated with a Pasteur pipette to remove the follicular tissue; this was followed by washing three times with OR-2 to remove all traces of collagenase. The oocytes were then washed in ND-96 (96 mM NaCl, 2 mM KCl, 1.8 mM CaCl2, 1 mM MgCl2, 5 mM HEPES, 50 ng/L gentamycin, 100 units/ml penicillin and 100 μg/ml streptomycin; pH 7.6) three times and this was followed by incubation in ND-96 at room temperature with mild agitation for 15 minutes; subsequently they were stored for at least 2 hours at 16° C. before sorting and selection for injection. Oocytes selected for injection were incubated overnight in ND-96 at 16° C.\nThe human GRIN1 (transcript variant NR1-3 (Origene, SKU #: SC115601, Rockville, Md.) and GRIN2D (NCBI locus NM_000836, sequence optimized and synthesized by GenScript) were linearized and transcribed using the mMessage mMachine kit (Life Technologies) and promoters SP6 (for GluN1) and T7 (for GluN2D). cRNAs were mixed together at a ratio of 1 GluN1:2 GluN2. Each oocyte was injected with 50 nL of cRNA and stored in ND96 (96 mM NaCl, 2 mM KCl, 1.8 mM CaCl2, 1 mM MgCl2, 5 mM HEPES, 50 ng/L gentamycin, 100 units/ml penicillin and 100 μg/ml streptomycin; pH 7.6) at 16° C. for 72 h prior to recording.\nCurrents were recorded using a two-electrode voltage-clamp amplifier (Oocyte Clamp OC-725C; Warner Instrument Corp, Hamden, Conn.), and digitized using Digidata 1550A and pClamp (v. 10) software (Molecular Devices, Sunnyvale, Calif.). Electrodes were filled with 3 M KCl and had resistances that ranged from 0.2-1 MO. All measurements were made at a holding potential of −40 mV. Cells were continuously perfused with oocyte recording solution containing 90 mM NaCl, 1 mM KCl, 0.5 mM BaCl2, and 10 mM HEPES (Ph 7.4). Glutamate and Glycine (co-agonists) were applied at respective concentrations of 10 μM each. Co-agonists were applied until a plateau was reached, and test compounds were then added in the continued presence of co-agonists until a new plateau was reached. After the addition of the last test compound concentration, the oocyte was washed with oocyte recording buffer. Fraction of current remaining was calculated as [(current in presence of test compound−background current)/(co-agonist current−background current)] and IC50 values were computed using Prism 6.0 (Graphpad)."}
{"smiles": "CC1CSc2nc(-c3cnc(C(C)(C)C)c(Br)c3)c(C#N)c(=O)n2C1", "note": "(centres unmarked) [Example 58, 8-(5-bromo-6-(tert-butyl)pyridin-3-yl)-3-methyl-6-oxo-3,4-dihydro-2H,6H-pyrimido[2,1-b][1,3]thiazine-7-carbonitrile]", "values": [{"measurement": "activation at 10 µM", "result": "> 1000", "unit": "%"}]}
{"smiles": "COc1cc(-c2nc3n(c(=O)c2C#N)CC(C)CS3)cnc1C(C)(C)C", "note": "(centres unmarked) [Example 59, 8-(6-(tert-butyl)-5-methoxypyridin-3-yl)-3-methyl-6-oxo-3,4-dihydro-2H,6H-pyrimido[2,1-b][1,3]thiazine-7-carbonitrile]", "values": [{"measurement": "activation at 10 µM", "result": "> 1000", "unit": "%"}]}
{"smiles": "COc1cc(-c2nc3n(c(=O)c2C#N)CCCS3)cnc1C(C)(C)C", "note": "[Example 60, 8-(6-(tert-butyl)-5-methoxypyridin-3-yl)-6-oxo-3,4-dihydro-2H,6H-pyrimido[2,1-b][1,3]thiazine-7-carbonitrile]", "values": [{"measurement": "activation at 10 µM", "result": "500 to 1000", "unit": "%"}]}
{"smiles": "CSc1cc(-c2nc3n(c(=O)c2C#N)CC(C)CS3)cnc1C(C)(C)C", "note": "(centres unmarked) [Example 61, 8-(6-(tert-butyl)-5-(methylthio)pyridin-3-yl)-3-methyl-6-oxo-3,4-dihydro-2H,6H-pyrimido[2,1-b][1,3]thiazine-7-carbonitrile]", "values": [{"measurement": "activation at 10 µM", "result": "> 1000", "unit": "%"}]}
{"smiles": "CSc1cc(-c2nc3n(c(=O)c2C#N)CCCS3)cnc1C(C)(C)C", "note": "[Example 62, 8-(6-(tert-butyl)-5-(methylthio)pyridin-3-yl)-6-oxo-3,4-dihydro-2H,6H-pyrimido[2,1-b][1,3]thiazine-7-carbonitrile]", "values": [{"measurement": "activation at 10 µM", "result": "> 1000", "unit": "%"}]}
{"smiles": "CN(C)c1ccc(-c2nc3n(c(=O)c2C#N)CCCS3)cn1", "note": "[Example 66, 8-(6-(dimethylamino)pyridin-3-yl)-6-oxo-3,4-dihydro-2H,6H-pyrimido[2,1-b][1,3]thiazine-7-carbonitrile]", "values": [{"measurement": "activation at 10 µM", "result": "10 to 100", "unit": "%"}]}
{"smiles": "CC(C)(C)c1ccc(-c2cc3n(c(=O)c2C#N)CCCS3)cc1", "note": "[Example 68, 8-(4-(tert-butyl)phenyl)-6-oxo-3,4-dihydro-2H,6H-pyrido[2,1-b][1,3]thiazine-7-carbonitrile]", "values": [{"measurement": "activation at 10 µM", "result": "> 1000", "unit": "%"}]}
{"smiles": "CC1CSc2cc(-c3ccc(C(C)(C)C)nc3)c(C#N)c(=O)n2C1", "note": "(centres unmarked) [Example 69, 8-(6-(tert-butyl)pyridin-3-yl)-3-methyl-6-oxo-3,4-dihydro-2H,6H-pyrido[2,1-b][1,3]thiazine-7-carbonitrile]", "values": [{"measurement": "activation at 10 µM", "result": "> 1000", "unit": "%"}]}
{"smiles": "CC(C)(C)c1ccc(-c2cc3n(c(=O)c2C#N)CCCS3)cn1", "note": "[Example 70, 8-(6-(tert-butyl)pyridin-3-yl)-6-oxo-3,4-dihydro-2H,6H-pyrido[2,1-b][1,3]thiazine-7-carbonitrile]", "values": [{"measurement": "activation at 10 µM", "result": "> 1000", "unit": "%"}]}
{"smiles": "CC1CSc2cc(-c3cnc(C(C)(C)C)nc3)c(C#N)c(=O)n2C1", "note": "(centres unmarked) [Example 71, 8-(2-(tert-butyl)pyrimidin-5-yl)-3-methyl-6-oxo-3,4-dihydro-2H,6H-pyrido[2,1-b][1,3]thiazine-7-carbonitrile]", "values": [{"measurement": "activation at 10 µM", "result": "> 1000", "unit": "%"}]}
{"smiles": "CC1CSc2cc(-c3ccc(C4(C)CC4)nc3)c(C#N)c(=O)n2C1", "note": "(centres unmarked) [Example 72, 3-methyl-8-(6-(1-methylcyclopropyl)pyridin-3-yl)-6-oxo-3,4-dihydro-2H,6H-pyrido[2,1-b][1,3]thiazine-7-carbonitrile]", "values": [{"measurement": "activation at 10 µM", "result": "> 1000", "unit": "%"}]}
{"smiles": "C[C@H]1CSc2nc(-c3cnc(C(C)(C)C)nc3)c(C#N)c(=O)n2C1", "note": "[Example 73, (R)-8-(2-(tert-butyl)pyrimidin-5-yl)-3-methyl-6-oxo-3,4-dihydro-2H,6H-pyrimido[2,1-b][1,3]thiazine-7-carbonitrile]", "values": [{"measurement": "activation at 10 µM", "result": "> 1000", "unit": "%"}]}
{"smiles": "C[C@@H]1CSc2nc(-c3cnc(C(C)(C)C)nc3)c(C#N)c(=O)n2C1", "note": "[Example 74, (S)-8-(2-(tert-butyl)pyrimidin-5-yl)-3-methyl-6-oxo-3,4-dihydro-2H,6H-pyrimido[2,1-b][1,3]thiazine-7-carbonitrile]", "values": [{"measurement": "activation at 10 µM", "result": "500 to 1000", "unit": "%"}]}
{"smiles": "CC(C)(C)c1ncc(-c2nc3n(c(=O)c2C#N)CCCS3)cc1F", "note": "[Example 75, 8-(6-(tert-butyl)-5-fluoropyridin-3-yl)-6-oxo-3,4-dihydro-2H,6H-pyrimido[2,1-b][1,3]thiazine-7-carbonitrile]", "values": [{"measurement": "activation at 10 µM", "result": "> 1000", "unit": "%"}]}
